Reference: PubChem BioAssay (NCI)
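Step 1: Grow cells in 96-well plates. Step 2: Expose to compound for 48 hours at 5 concentrations. Step 3: Interpolate endpoints linearly; if unreached, use highest concentration. The concentration for full growth arrest is given as TGI.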

Columns and labels:
Assay in all cases: NCI anticancer screen, dose series, 48 h
786-0 renal = tested on: 786-0 renal
A498 renal = tested on: A498 renal
A549 NSCLC = tested on: A549 NSCLC
ACHN renal = tested on: ACHN renal
BT-549 breast = tested on: BT-549 breast
CAKI-1 renal = tested on: CAKI-1 renal
CCRF-CEM leukemia = tested on: CCRF-CEM leukemia
COLO 205 colon = tested on: COLO 205 colon
DU-145 prostate = tested on: DU-145 prostate
EKVX NSCLC = tested on: EKVX NSCLC
HCC-2998 colon = tested on: HCC-2998 colon
HCT-116 colon = tested on: HCT-116 colon
HCT-15 colon = tested on: HCT-15 colon
HL-60(TB) leukemia = tested on: HL-60(TB) leukemia
HOP-62 NSCLC = tested on: HOP-62 NSCLC
HOP-92 NSCLC = tested on: HOP-92 NSCLC
HS 578T breast = tested on: HS 578T breast
IGROV1 ovarian = tested on: IGROV1 ovarian
K-562 leukemia = tested on: K-562 leukemia
KM12 colon = tested on: KM12 colon
LOX IMVI melanoma = tested on: LOX IMVI melanoma
M14 melanoma = tested on: M14 melanoma
MALME-3M melanoma = tested on: MALME-3M melanoma
MCF7 breast = tested on: MCF7 breast
MDA-MB-231 breast = tested on: MDA-MB-231 breast
MDA-MB-435 = tested on: MDA-MB-435
MDA-N = tested on: MDA-N
MOLT-4 leukemia = tested on: MOLT-4 leukemia
NCI-H23 lung = tested on: NCI-H23 lung
NCI-H460 lung = tested on: NCI-H460 lung
NCI-H522 lung = tested on: NCI-H522 lung
OVCAR-3 ovarian = tested on: OVCAR-3 ovarian
OVCAR-4 ovarian = tested on: OVCAR-4 ovarian
OVCAR-5 ovarian = tested on: OVCAR-5 ovarian
PC-3 prostate = tested on: PC-3 prostate
RPMI-8226 leukemia = tested on: RPMI-8226 leukemia
RXF 393 renal = tested on: RXF 393 renal
SF-268 CNS = tested on: SF-268 CNS
SF-295 CNS = tested on: SF-295 CNS
SF-539 CNS = tested on: SF-539 CNS
SK-MEL-2 melanoma = tested on: SK-MEL-2 melanoma
SK-MEL-28 melanoma = tested on: SK-MEL-28 melanoma
SK-MEL-5 melanoma = tested on: SK-MEL-5 melanoma
SK-OV-3 ovarian = tested on: SK-OV-3 ovarian
SN12C renal = tested on: SN12C renal
SNB-19 CNS = tested on: SNB-19 CNS
SNB-75 CNS = tested on: SNB-75 CNS
SR leukemia = tested on: SR leukemia
SW-620 colon = tested on: SW-620 colon
T-47D breast = tested on: T-47D breast
TK-10 renal = tested on: TK-10 renal
U251 CNS = tested on: U251 CNS
UACC-257 melanoma = tested on: UACC-257 melanoma
UACC-62 melanoma = tested on: UACC-62 melanoma
UO-31 renal = tested on: UO-31 renal

SMILES: CCc1cccc(CC)c1Nc1nc(-c2ccccc2-c2ccccc2)cs1
- TGI (786-0 renal): > 100 µM
- TGI (A498 renal): > 100 µM
- TGI (A549 NSCLC): > 100 µM
- TGI (ACHN renal): > 100 µM
- TGI (BT-549 breast): 84.8 µM
- TGI (CAKI-1 renal): > 100 µM
- TGI (CCRF-CEM leukemia): > 100 µM
- TGI (COLO 205 colon): > 100 µM
- TGI (DU-145 prostate): > 100 µM
- TGI (EKVX NSCLC): > 100 µM
- TGI (HCC-2998 colon): > 100 µM
- TGI (HCT-116 colon): > 100 µM
- TGI (HCT-15 colon): > 100 µM
- TGI (HL-60(TB) leukemia): > 100 µM
- TGI (HOP-62 NSCLC): > 100 µM
- TGI (HOP-92 NSCLC): > 100 µM
- TGI (HS 578T breast): > 100 µM
- TGI (IGROV1 ovarian): > 100 µM
- TGI (K-562 leukemia): > 100 µM
- TGI (KM12 colon): > 100 µM
- TGI (LOX IMVI melanoma): > 100 µM
- TGI (M14 melanoma): > 100 µM
- TGI (MALME-3M melanoma): > 100 µM
- TGI (MCF7 breast): > 100 µM
- TGI (MDA-MB-231 breast): > 100 µM
- TGI (MDA-MB-435): > 100 µM
- TGI (MDA-N): > 100 µM
- TGI (MOLT-4 leukemia): > 100 µM
- TGI (NCI-H23 lung): > 100 µM
- TGI (NCI-H460 lung): > 100 µM
- TGI (NCI-H522 lung): > 100 µM
- TGI (OVCAR-3 ovarian): > 100 µM
- TGI (OVCAR-4 ovarian): > 100 µM
- TGI (OVCAR-5 ovarian): > 100 µM
- TGI (PC-3 prostate): > 100 µM
- TGI (RPMI-8226 leukemia): > 100 µM
- TGI (RXF 393 renal): > 100 µM
- TGI (SF-268 CNS): > 100 µM
- TGI (SF-295 CNS): > 100 µM
- TGI (SF-539 CNS): > 100 µM
- TGI (SK-MEL-2 melanoma): > 100 µM
- TGI (SK-MEL-28 melanoma): > 100 µM
- TGI (SK-MEL-5 melanoma): > 100 µM
- TGI (SK-OV-3 ovarian): > 100 µM
- TGI (SN12C renal): > 100 µM
- TGI (SNB-19 CNS): > 100 µM
- TGI (SNB-75 CNS): > 100 µM
- TGI (SR leukemia): > 100 µM
- TGI (SW-620 colon): > 100 µM
- TGI (T-47D breast): > 100 µM
- TGI (TK-10 renal): > 100 µM
- TGI (U251 CNS): > 100 µM
- TGI (UACC-257 melanoma): > 100 µM
- TGI (UACC-62 melanoma): > 100 µM
- TGI (UO-31 renal): > 100 µM
